The target of assay [1] is T1, human CYP11B2 (Homo sapiens, UniProt P19099).
T1 construct: expressed in transfected cells
T1 sequence (P19099 25-503): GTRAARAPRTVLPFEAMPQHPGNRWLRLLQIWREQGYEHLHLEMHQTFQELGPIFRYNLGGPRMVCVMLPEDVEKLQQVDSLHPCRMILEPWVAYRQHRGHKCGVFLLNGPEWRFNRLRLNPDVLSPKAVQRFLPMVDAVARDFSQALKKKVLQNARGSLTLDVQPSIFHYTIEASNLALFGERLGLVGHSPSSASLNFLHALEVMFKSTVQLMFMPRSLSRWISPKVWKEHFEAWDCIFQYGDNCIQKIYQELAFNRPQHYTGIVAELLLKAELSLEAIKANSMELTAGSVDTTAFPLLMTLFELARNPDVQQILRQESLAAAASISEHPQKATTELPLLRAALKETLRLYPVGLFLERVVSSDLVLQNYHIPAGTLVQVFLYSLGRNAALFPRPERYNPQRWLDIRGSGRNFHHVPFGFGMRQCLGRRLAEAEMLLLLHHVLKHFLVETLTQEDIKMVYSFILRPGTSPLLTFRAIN
The assay can be described thus: Inhibition of hCYP11B2 in transfected V79 cells. The class given is cell-based. Conditions: hamster V79 cells expressing human CYP11B2; substrate 11-deoxycorticosterone 200 nM. In a few lines:
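Hamster V79 cells stably co-expressing human CYP11B2 and rat NADPH-P450 reductase were pre-incubated with compounds for 2 hours, then given 200 nM 11-deoxycorticosterone for 30 minutes before ethyl acetate quench. Substrate and product were quantified by LC-MS/MS or HPLC at 260 nm, and IC50 was derived from percent inhibition.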

The target of assay [2] is T2, human CYP11B1 (Homo sapiens, UniProt P15538).
T2 construct: expressed in transfected cells
T2 sequence (P15538 25-503): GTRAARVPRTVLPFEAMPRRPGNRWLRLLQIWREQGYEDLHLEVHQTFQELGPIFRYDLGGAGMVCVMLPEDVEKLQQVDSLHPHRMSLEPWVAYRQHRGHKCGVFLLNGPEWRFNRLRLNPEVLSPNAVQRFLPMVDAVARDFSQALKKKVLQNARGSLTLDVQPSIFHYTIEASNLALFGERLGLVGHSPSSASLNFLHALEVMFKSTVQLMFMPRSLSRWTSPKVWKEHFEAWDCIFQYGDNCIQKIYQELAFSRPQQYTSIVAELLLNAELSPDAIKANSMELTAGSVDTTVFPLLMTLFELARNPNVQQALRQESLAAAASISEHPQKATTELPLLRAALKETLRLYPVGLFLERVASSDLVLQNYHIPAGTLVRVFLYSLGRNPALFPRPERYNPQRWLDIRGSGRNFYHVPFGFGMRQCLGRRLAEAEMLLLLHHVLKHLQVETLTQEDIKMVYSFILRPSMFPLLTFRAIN
The assay can be described thus: Inhibition of hCYP11B1 in transfected V79 cells. Conditions: hamster V79 cells expressing human CYP11B1; substrate 11-deoxycortisol 200 nM. In kind it is cell-based. The method, boiled down:
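V79 hamster cells stably expressing human CYP11B1 and rat NADPH-P450 reductase were preincubated with compounds for 2 h. 11-Deoxycortisol (200 nM) was then added as substrate for 30 min before ethyl acetate quench. Substrate and product were quantified by LC-MS/MS or HPLC at 260 nm, and IC50 was derived from percent inhibition.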

In the case of `N#Cc1ccc(-c2cncc3c2SCCN3S(=O)(=O)C2CN(S(=O)(=O)c3cccc(F)c3)C2)cc1` [S75, 4-(4-((1-((3-Fluorophenyl)sulfonyl)azetidin-3-yl)sulfonyl)-3,4-dihydro-2H-pyrido[4,3-b][1,4]thiazin-8-yl)benzonitrile], the 50% inhibitory concentration (IC50) (as a rule, the concentration at which inhibition is half-maximal) was 0.7 nM in assay [1] and 12 nM in assay [2].

Consider `N#Cc1ccc(-c2cncc3c2SCCN3S(=O)(=O)C2CN(S(=O)(=O)c3ccc(C#N)cc3)C2)cc1` [S76, 4-((3-((8-(4-Cyanophenyl)-2,3-dihydro-4H-pyrido[4,3-b][1,4]thiazin-4-yl)sulfonyl)azetidin-1-yl)sulfonyl)benzonitrile], for which the results for the half-inhibitory concentration (IC50) in assay [1] and in assay [2] were 0.8 nM and 24 nM, respectively.

With `N#Cc1ccc(-c2cncc3c2SCCN3S(=O)(=O)C2CN(S(=O)(=O)c3cccc(C#N)c3)C2)cc1` [S77, 3-((3-((8-(4-Cyanophenyl)-2,3-dihydro-4H-pyrido[4,3-b][1,4]thiazin-4-yl)sulfonyl)azetidin-1-yl)sulfonyl)benzonitrile], the half-inhibitory concentration (IC50) is 0.8 nM in assay [1] and 32 nM in assay [2].

Turning to `COc1ccc(S(=O)(=O)N2CC(S(=O)(=O)N3CCSc4c(-c5ccc(C#N)cc5)cncc43)C2)cc1` [S78, 4-(4-((1-((4-Methoxyphenyl)sulfonyl)azetidin-3-yl)sulfonyl)-3,4-dihydro-2H-pyrido[4,3-b][1,4]thiazin-8-yl)benzonitrile], the concentration for half-maximal inhibition (IC50) in assay [1] came out at 1.2 nM; in assay [2], 38 nM.

Consider `COc1cccc(S(=O)(=O)N2CC(S(=O)(=O)N3CCSc4c(-c5ccc(C#N)cc5)cncc43)C2)c1` [S79, 4-(4-((1-((3-Methoxyphenyl)sulfonyl)azetidin-3-yl)sulfonyl)-3,4-dihydro-2H-pyrido[4,3-b][1,4]thiazin-8-yl)benzonitrile], for which the concentration for half-maximal inhibition (IC50) in assay [1] was determined as 0.8 nM; in assay [2], 16 nM.

Consider `N#Cc1ccc(CN2CC(S(=O)(=O)N3CCSc4c(-c5ccc(C#N)cc5)cncc43)C2)cc1` [S80, 4-(4-((1-(4-Cyanobenzyl)azetidin-3-yl)sulfonyl)-3,4-dihydro-2H-pyrido[4,3-b][1,4]thiazin-8-yl)benzonitrile], for which the figures for the 50% inhibitory concentration (IC50) in assay [1] and in assay [2] were 0.6 nM and 18 nM, respectively.

With `N#Cc1ccc(-c2cncc3c2SCCN3S(=O)(=O)C2CN(Cc3cccc(C#N)c3)C2)cc1` [S81, 3-((3-((8-(4-Cyanophenyl)-2,3-dihydro-4H-pyrido[4,3-b][1,4]thiazin-4-yl)sulfonyl)azetidin-1-yl)methyl)benzonitrile], the IC50 in assay [1] is 0.4 nM; in assay [2], 19 nM.

In the case of `N#Cc1ccc(-c2cncc3c2SCCN3S(=O)(=O)C2CN(Cc3ccc(F)cc3)C2)cc1` [S82, 4-(4-((1-(4-Fluorobenzyl)azetidin-3-yl)sulfonyl)-3,4-dihydro-2H-pyrido[4,3-b][1,4]thiazin-8-yl)benzonitrile], the half-inhibitory concentration (IC50) in assay [1] was found to be 0.4 nM; in assay [2], 9.4 nM.

Regarding `N#Cc1ccc(-c2cncc3c2SCCN3S(=O)(=O)C2CN(Cc3cccc(F)c3)C2)cc1` [S83, 4-(4-((1-(3-Fluorobenzyl)azetidin-3-yl)sulfonyl)-3,4-dihydro-2H-pyrido[4,3-b][1,4]thiazin-8-yl)benzonitrile], the IC50 in assay [1] is 0.8 nM; in assay [2] it was 21 nM.

In the case of `COc1ccc(CN2CC(S(=O)(=O)N3CCSc4c(-c5ccc(C#N)cc5)cncc43)C2)cc1` [S84, 4-(4-((1-(4-Methoxybenzyl)azetidin-3-yl)sulfonyl)-3,4-dihydro-2H-pyrido[4,3-b][1,4]thiazin-8-yl)benzonitrile], the 50% inhibitory concentration (IC50) in assay [1] came to 1.1 nM; in assay [2], 57 nM.

In the case of `COc1cccc(CN2CC(S(=O)(=O)N3CCSc4c(-c5ccc(C#N)cc5)cncc43)C2)c1` [S85, 4-(4-((1-(3-Methoxybenzyl)azetidin-3-yl)sulfonyl)-3,4-dihydro-2H-pyrido[4,3-b][1,4]thiazin-8-yl)benzonitrile], the IC50 in assay [1] is 0.9 nM; in assay [2], 37 nM.

On to `CC(=O)Nc1ccccc1C(=O)N1CCSc2c(-c3ccc(C#N)cc3)cncc21` [S86, N-(2-(8-(4-Cyanophenyl)-3,4-dihydro-2H-pyrido[4,3-b][1,4]thiazine-4-carbonyl)phenyl) acetamide], for which the IC50 stood at 22 nM in assay [1] and 1540 nM in assay [2].

Turning to `N#Cc1ccc(-c2cncc3c2SCCN3C(=O)c2cccc(C(F)(F)F)c2)cc1` [S87, 4-(4-(3-(Trifluoromethyl)benzoyl)-3,4-dihydro-2H-pyrido[4,3-b][1,4]thiazin-8-yl)benzonitrile], the IC50 was 12 nM in assay [1] and 522 nM in assay [2].

As to `N#Cc1ccc(-c2cncc3c2SCCN3C(=O)c2ccc(C(F)(F)F)cc2)cc1` [S88, 4-(4-(4-(Trifluoromethyl)benzoyl)-3,4-dihydro-2H-pyrido[4,3-b][1,4]thiazin-8-yl)benzonitrile], the IC50 stood at 6.8 nM in assay [1] and 251 nM in assay [2].

Turning to `Cc1ccc(C(=O)N2CCSc3c(-c4ccc(C#N)cc4)cncc32)cc1` [S89, 4-(4-(4-Methylbenzoyl)-3,4-dihydro-2H-pyrido[4,3-b][1,4]thiazin-8-yl)benzonitrile], the IC50 in assay [1] was 43 nM; in assay [2], 2850 nM.

Regarding `Cc1ccccc1C(=O)N1CCSc2c(-c3ccc(C#N)cc3)cncc21` [S90, 4-(4-(2-Methylbenzoyl)-3,4-dihydro-2H-pyrido[4,3-b][1,4]thiazin-8-yl)benzonitrile], the IC50 in assay [1] is 64 nM; in assay [2], 4440 nM.

`Cc1cccc(C(=O)N2CCSc3c(-c4ccc(C#N)cc4)cncc32)c1` [S91, 4-(4-(3-Methylbenzoyl)-3,4-dihydro-2H-pyrido[4,3-b][1,4]thiazin-8-yl)benzonitrile]: the half-inhibitory concentration (IC50) in assay [1] was 44 nM; in assay [2], 3650 nM.

As for `N#Cc1ccc(-c2cncc3c2SCCN3C(=O)c2ccc(Cl)cc2)cc1` [S92, 4-(4-(4-Chlorobenzoyl)-3,4-dihydro-2H-pyrido[4,3-b][1,4]thiazin-8-yl)benzonitrile], the concentration for half-maximal inhibition (IC50) in assay [1] stood at 13 nM; in assay [2], 856 nM.

As for `N#Cc1ccc(-c2cncc3c2SCCN3C(=O)c2cccc(Cl)c2)cc1` [S93, 4-(4-(3-Chlorobenzoyl)-3,4-dihydro-2H-pyrido[4,3-b][1,4]thiazin-8-yl)benzonitrile], the IC50 came to 24 nM in assay [1] and 1310 nM in assay [2].

As for `N#Cc1ccc(C(=O)N2CCSc3c(-c4ccc(C#N)cc4)cncc32)cc1` [S94, 4-(4-(4-Cyanobenzoyl)-3,4-dihydro-2H-pyrido[4,3-b][1,4]thiazin-8-yl)benzonitrile], the 50% inhibitory concentration (IC50) in assay [1] came to 38 nM; in assay [2], 2660 nM.

With `N#Cc1ccc(-c2cncc3c2SCCN3C(=O)c2cccc(C#N)c2)cc1` [S95, 3-(8-(4-Cyanophenyl)-3,4-dihydro-2H-pyrido[4,3-b][1,4]thiazine-4-carbonyl)benzonitrile], the values for the concentration for half-maximal inhibition (IC50) in assay [1] and in assay [2] were 79 nM and 2060 nM, respectively.

On to `COc1cccc(C(=O)N2CCSc3c(-c4ccc(C#N)cc4)cncc32)c1` [S96, 4-(4-(3-Methoxybenzoyl)-3,4-dihydro-2H-pyrido[4,3-b][1,4]thiazin-8-yl)benzonitrile], for which the IC50 came out at 11 nM in assay [1] and 643 nM in assay [2].

In the case of `COc1ccc(C(=O)N2CCSc3c(-c4ccc(C#N)cc4)cncc32)cc1` [S97, 4-(4-(4-Methoxybenzoyl)-3,4-dihydro-2H-pyrido[4,3-b][1,4]thiazin-8-yl)benzonitrile], the concentration for half-maximal inhibition (IC50) in assay [1] turned out to be 21 nM; in assay [2] it was 4210 nM.

As for `COc1ccc(C(=O)N2CCSc3c(-c4cc5cc(C#N)ccc5o4)cncc32)cc1` [S98, 2-(4-(4-Methoxybenzoyl)-3,4-dihydro-2H-pyrido[4,3-b][1,4]thiazin-8-yl)benzofuran-5-carbonitrile], the IC50 is 11 nM in assay [1] and 1160 nM in assay [2].

Regarding `N#Cc1ccc(-c2cncc3c2SCC(=O)N3)cc1` [S99, 4-(3-Oxo-3,4-dihydro-2H-pyrido[4,3-b][1,4]thiazin-8-yl)benzonitrile], the figures for the IC50 in assay [1] and in assay [2] were 6.9 nM and 703 nM, respectively.

Regarding `N#Cc1ccc(-c2cncc3c2SCC(=O)N3C(=O)c2ccc(Cl)cc2)cc1` [S100, 4-(4-(4-chlorobenzoyl)-3-oxo-3,4-dihydro-2H-pyrido[4,3-b][1,4]thiazin-8-yl)benzonitrile], the half-maximal inhibitory concentration (IC50) in assay [1] turned out to be 10.6 nM; in assay [2] it was 966 nM.

Values taken from patent US20260092074A1, “Annelated Pyridines as Steroidogenesis Inhibitors, Preparation Method and Use Thereof” (Guangzhou Vinnocent Pharmaceutical Limited, priority 2022, published 2026).
